# Data reported in patent US8748445B2, “Methods for treating glioma” (The UAB Research Foundation, priority 2004, dated 2014).
# Legend:
# [1] = system: primary astrocyte cultures; experiment: growth of primary astrocyte cultures; format: cell-based; conditions: (S)-4-CPG 0.25 mM and 0.5 mM (FIG. 3C); sulfasalazine data not shown
# [2] = system: D54-MG glioma cells; experiment: intracranial D54-MG luciferase xenograft, bioluminescence imaging; format: in vivo, CB-17 scid mice
# Procedure: Therefore, the effect of inhibiting system Xc in an animal model of malignant glioma was examined. In these experiments, both (S)-4-CPG or sulfasalazine were used. […] In the described in vivo experiments, human gliomas were xenografted into the cranium of either female CB-17 scid mice or nude mice, both of which are frequently used animal models for malignant gliomas. The intracranial growth of tumors was assessed using the recently developed […] methodology for visualizing tumor growth.
# In one set of in vivo experiments, D54-MG glioma cells were stably transfected with the firefly luciferase gene under the control of the CMV promoter. One-half million cells were stereotactically implanted into the cranium of each CB-17 scid mouse. After 7 days, animals were randomized into three groups of 12 animals each. The control group received an intraperitoneal injection of 1 ml dose of saline twice daily. The two test groups received an 8 mg dose of sulfasalazine twice daily for either 1 or 3 weeks. Animals were imaged for tumor size, typically once per week, using a bioluminescence imaging system (IVIS system; Xenogen). Light emission from the tumor regions (in relative photons/second) were quantified using Living Image, version 2.20.1, software provided by Xenogen and plotted as a function of time.
# [3] = system: cortical neuronal cultures; experiment: survival of cortical neuronal cultures; format: cell-based; conditions: (S)-4-CPG 0.25 mM and 0.5 mM (FIG. 3C); sulfasalazine data not shown
# [4] = system: D54-MG glioma cells; experiment: glutathione levels in tumor sections (monochlorobimane fluorescence); format: in vivo, CB-17 scid mice; conditions: 8 mg 2 times per day, 44 days after tumor induction
# Procedure: The control group and treatment group animals were those described in FIG. 7A above. For these experiments, four mice (two control and two treatment) were sacrificed at 44 days after tumor induction, and brains were rapidly frozen and cryosectioned to […], thawed on ice, and then incubated with 100 μM monochlorobimane for 10 min. Fluorescence intensities were examined using a quantitative fluorescence imaging system comparing side-by-side slices from control group and treatment group animals. In these experiments, 10 slices were examined per animal. […] After treatment with 8 mg sulfasalazine 2 times per day, glutathione levels decreased approximately 30% (from 100+/−5.6 to 71.7+/−7.5 fluorescence units; p 0.01; t test) in tumors as compared with control animals (receiving saline alone). In parallel studies, the same assay was used on cultured glioma cells to validate these readouts. A 30% decrease in glutathione levels correlates with the glutathione depletion achieved with 70 μM sulfasalazine administered for 24 h to cultured cells; the maximal decrease achieved with 250 μM sulfasalazine in cultured U87-MG cells was 68% (data not shown).
# [5] = system: cortical astrocytes; experiment: intracellular glutathione in cortical astrocytes; format: cell-based; conditions: sulfasalazine 50-500 μM; compared to glioma cells (FIG. 2E)
# Procedure: To determine if limiting cystine uptake via system Xc reduces the total intracellular glutathione content (GSH and glutathione disulfide), intracellular glutathione concentrations were determined in the presence and absence of sulfasalazine.
# [6] = system: glioma cells; experiment: cell death by flow cytometry using the Live/Dead assay kit; format: cell-based, human; conditions: 1 mM, 5 d incubation (FIG. 5E)
# Procedure: Because an accumulation of ROS can lead to apoptotic cell death, the ability of system Xc inhibitors to induce apoptosis in glioma cells was examined. […] Often apoptosis is dependent on caspase activities, so it was determined whether the system Xc inhibitors induce activated caspase-3, which is the convergent enzyme in the caspase-dependent signaling cascade. […] With 1 mM sulfasalazine, 90% of cells died over the 5 d incubation (FIG. 5E).
smiles,measurement,setting,value
O=C(O)c1cc(/N=N/c2ccc(S(=O)(=O)Nc3ccccn3)cc2)ccc1O [sulfasalazine],growth of primary astrocyte cultures,[1],Neither (S)-4-CPG (FIG. 3C) nor sulfasalazine (data not shown) affected
same,tumor expansion (relative bioluminescence),"[2]; 8 mg intraperitoneal twice daily for either 1 or 3 weeks, from day 7 (FIG. 7A)",significantly reduced
same,tumor growth after retreatment,[2]; retreated at day 53 for 3 days after termination of treatment (FIG. 7A),again reduced after retreatment
same,survival/growth of cortical neuronal cultures,[3],Neither (S)-4-CPG (FIG. 3C) nor sulfasalazine (data not shown) affected
same,glutathione levels in tumors,[4]; control 100+/−5.6,71.7+/−7.5 fluorescence units
same,decrease of glutathione levels in tumors,[4]; versus saline control,approximately 30%
same,intracellular glutathione concentration in astrocytes,[5],a smaller effect
same,cells died,[6],90%
